Several values for one entry are separate records, joined by “and”; a condition that tells them apart may be missing. Equal values may be shown once. Activity calls are given as the source filed them.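 How the source made its calls: active means compounds giving half or more protection of infected cells from virus-caused growth loss, again on retest; inactive means the rest.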 Where a SMILES comes first, the peptide text is derived from it. The star is where a group is joined. Cbz = O=C(OCc1ccccc1)*; NHNH2 = NN*
Test system: CEM cells HIV-1 protection, formazan growth assay
Assay: NCI AIDS Antiviral Assay
Details: for IC50: measured here: growth of uninfected CEM cells
In short: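 Five concentrations of each compound were applied to infected and uninfected human CEM cells. Protection from HIV-1 was judged from growth measured with a soluble formazan assay.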

Cc1[nH]c2ccccc2c1C(=O)CC1(O)C(=O)Nc2ccccc21 (stereo not drawn)
outcome: inactive

C[N+](C)(C)CCS(=O)(=O)[O-]
EC50: > 200 µM
IC50: > 200 µM

CN(C)c1ccc(/C=C\C#N)cc1
EC50: > 97.7 µM
IC50: > 97.7 µM

Cc1cc([N+](=O)[O-])c2c(c1)P(=O)(O)c1cc(C)cc([N+](=O)[O-])c1O2
EC50: > 200 µM
IC50: > 200 µM

CN1C(=O)/C(=C2\SC(=O)N(CN3CCCCC3)C2=O)c2ccccc21
EC50: > 200 µM
IC50: 27.5 µM

CN(C)CCCN1CCc2c([nH]c3ccccc23)C1c1cccnc1 (stereo not drawn)
EC50: > 107 µM
IC50: > 107 µM

C[C@]12CCC(=O)C=C1CC[C@@H]1C2CC[C@]2(C)Nc3c(cnn3-c3ccccc3)CC12 (stereo partly drawn)
outcome: inactive

O=C1CCCCC/C1=C\c1ccc(Cl)cc1
EC50: > 200 µM
IC50: 27.5 µM

NC(=O)NC1=NC(Cc2ccccc2)C(=O)N1Cc1ccccc1 (stereo not drawn)
EC50: > 200 µM
IC50: 182 µM

CCOC(=O)/C=C/[C@@H](CC)O[Si](C(C)C)(C(C)C)C(C)C
EC50: > 200 µM
IC50: > 200 µM

NCCCN(CCCN)CCCNCc1c2ccccc2c(CNCCCN(CCCN)CCCN)c2ccccc12
EC50: 4.79 µM
IC50: 16.6 µM

CCOC(=O)c1csc(-c2nc(CCNC(=O)c3ccccc3)sc2Cl)n1
EC50: > 85.1 µM
IC50: 44.7 µM

COC(=O)/C=C/COCC1C2CCC(=O)C21 (stereo not drawn)
EC50: > 151 µM
IC50: > 151 µM

CCN(CC)C(=S)N/N=C/c1ccccn1
EC50: > 0.2 µM
IC50: 0.00363 µM

CCCCNc1cc2oc(=O)cc(C)c2cc1N
EC50: > 155 µM
IC50: 44.7 µM

C[N+](C)(C)CC(CC(=O)[O-])C1CC1 (stereo not drawn)
EC50: > 1350 µM
IC50: > 1350 µM

Clc1cccc(C2ON=C(c3ccccc3)N2C23CC4CC(CC(C4)C2)C3)c1Cl (stereo not drawn)
EC50: > 200 µM
IC50: > 200 µM

CC(Cl)CC(=O)OCC1CCCN2CCCCC12 (stereo not drawn)
EC50: > 200 µM
IC50: > 200 µM

N#CCC(=O)NCCc1c[nH]c2ccccc12
EC50: > 200 µM
IC50: > 200 µM

O=[As](O)(O)c1ccccc1F
EC50: > 200 µM
IC50: 141 µM

Cc1ccc(CCC(=O)C(=O)O)s1
EC50: > 479 µM
IC50: > 479 µM

Nc1ccccc1C(=O)C(Br)C(Br)c1ccc2c(c1)OCO2 (stereo not drawn)
EC50: > 43.7 µM
IC50: 23.4 µM

CCN(CC)CCCC(C)Nc1ccnc2cc(Cl)ccc12 (stereo not drawn)
outcome: inactive

CCOC(=O)C1NCCc2c1[nH]c1ccccc21 (stereo not drawn)
EC50: > 67.6 µM
IC50: 44.7 µM

CCN(CC)Cc1cc(Nc2c3ccccc3nc3c2[nH]c2ccccc23)cc(CN(CC)CC)c1O
EC50: > 427 µM
IC50: 0.269 µM

C1=CC2CCC1C1CN(CCCN3CCOCC3)CC21 (stereo not drawn)
EC50: > 708 µM
IC50: > 708 µM

CC(=O)OC1CN2CC[C@H](O)C2C(O)[C@@H]1O (stereo partly drawn)
EC50: 41.7 µM
IC50: 1070 µM

Cc1nc2ccccc2c(=O)n1NC(=O)c1ccccc1[N+](=O)[O-]
EC50: > 200 µM
IC50: > 200 µM

COc1ccc2cc3[n+](cc2c1OC)CCc1cc2c(cc1-3)OCO2
EC50: > 339 µM
IC50: 6.76 µM and 3.31 µM

Cc1cc(C)nc(NS(=O)(=O)c2ccc(NC(=O)c3cccc4c(=O)c5ccccc5[nH]c34)cc2)n1
outcome: inactive

CCOP(=O)(OCC)/C(C#N)=C/c1ccccc1Cl
outcome: inactive

N#CCCN(c1ccc(C=Nc2ccc(C(=O)O)cc2)cc1)S(=O)(=O)c1ccccc1
EC50: > 302 µM
IC50: > 302 µM

COC(=O)CC(NC(=O)OCc1ccccc1)C(=O)NC(CC(=O)OC)C(=O)NC(CC(=O)OC)C(=O)NC(CC(=O)OC)C(=O)NC(CC(=O)OC)C(=O)NC(CC(=O)OC)C(=O)NN (stereo not drawn) (Cbz-D(OMe)D(OMe)D(OMe)D(OMe)D(OMe)D(OMe)-NHNH2; configuration not given here)
EC50: > 100 µM
IC50: > 100 µM

O=C(O)c1cc(S(=O)(=O)N=NC=C2c3ccccc3N(O)c3ccccc32)ccc1O
outcome: inactive

CC1(C)OC(=O)CC(=O)O1
EC50: > 200 µM
IC50: > 200 µM

O=C1C(c2ccccc2)=C(c2ccccc2)C(c2ccc(CCCCCCc3ccc(C4=C(c5ccccc5)C(=O)C(c5ccccc5)=C4c4ccccc4)cc3)cc2)=C1c1ccccc1
EC50: > 1.23 µM
IC50: > 1.23 µM

COc1ccc(C(=C[N+](=O)[O-])c2ccc(OC)cc2)cc1
outcome: inactive

Cc1cc(C)c(OC(=O)Nc2cccc3ccccc23)c(-c2ccccc2)c1
EC50: > 200 µM
IC50: 19.5 µM

CCOC(=O)c1sc2[n+](c1C)C(=O)/C(=C/c1ccc([N+](=O)[O-])cc1)S2
EC50: > 200 µM
IC50: 20.4 µM

O=C1C(=O)N(CNC(c2ccccc2)c2ccccc2)c2ccccc21
EC50: > 126 µM
IC50: 102 µM

COC(=O)c1ccccc1C1CN=NC12Cc1cc(C)c(C)cc1C2=O (stereo not drawn)
EC50: > 138 µM
IC50: > 138 µM

CCCCCCCCCCCCCCCC(=O)NC(Cc1ccc(O)cc1)C(=O)O (stereo not drawn)
EC50: > 100 µM
IC50: 50.1 µM

O=c1c2ccccc2nc2[nH]ncn12
EC50: > 200 µM
IC50: 117 µM

CCOC(=O)C1=C(Nc2ccccc2)OC/C1=N\NC(=O)Cc1ccccc1
EC50: > 46.8 µM
IC50: > 46.8 µM

ON(Cc1ccccc1)C(=S)c1ccccc1
EC50: > 5.37 µM
IC50: 0.372 µM

CCCCCC1C2C(=O)NC(=O)C1C(=O)NC2=O (stereo not drawn)
EC50: > 1000 µM
IC50: > 1000 µM

c1ccc2c(c1)SCCC2NC1=NCCO1 (stereo not drawn)
EC50: > 200 µM
IC50: 162 µM

OCC1=CCC2c3[nH]c4ccccc4c3CCN2C1 (stereo not drawn)
EC50: > 372 µM
IC50: > 372 µM

CCC(=O)N1C(=O)C(C)C23c4cc(OC)c(OC)cc4C(=O)N2CCCN13 (stereo not drawn)
EC50: > 240 µM
IC50: > 240 µM

O=C(O)/C=C/C(=O)Nc1ccccc1-n1cccc1
EC50: > 200 µM
IC50: > 200 µM

CCOc1ccc(C(CN2CCOCC2)C(C)=O)cc1OC (stereo not drawn)
EC50: > 724 µM
IC50: 1.95 µM

CCOC(=O)C1=NN(c2ccccc2)C(=O)/C1=C\N1CCNC1=S
EC50: > 135 µM
IC50: > 100 µM

Cc1[nH]c2c(ccc3c2ccc2c(=O)c(C)c(C)[nH]c23)c(=O)c1C
EC50: > 200 µM
IC50: 138 µM

Cc1cccc(C)c1N1C(=O)C2c3[nH]c4ccccc4c3C3CCC(C(C)(C)C)CC3C2C1=O (stereo not drawn)
EC50: > 200 µM
IC50: 12.3 µM

COc1cc2c(cc1OC)C(=O)C(C1=C(SC(=N)N)C(=O)c3cc(OC)c(OC)cc31)C2 (stereo not drawn)
EC50: > 28.2 µM
IC50: > 28.2 µM

O=c1[nH]c(=O)n(C2CC(F)C(CO)O2)cc1C(OCC(F)(F)F)OCC(F)(F)F (stereo not drawn)
EC50: 37.2 µM
IC50: 195 µM

O=C1Oc2ccccc2C(=O)/C1=C1\SSC(c2ccccc2)=C1c1ccccc1
EC50: > 200 µM
IC50: > 200 µM

c1ccc2c(c1)nc1nc3c(cn12)CCCCC3
outcome: inactive

CO/N=C(\C(=O)[N-][n+]1cnn(CC(=O)O)c1)c1csc(N)n1
EC50: > 200 µM
IC50: > 200 µM

COC(=O)C(C)(C)C(OP(=O)(OC)OC)=C(C)C
EC50: > 891 µM
IC50: > 891 µM

CN=C1SC(=Nc2ccc(N(C)C)cc2)N1C
outcome: inactive

O=C1[C@H]2ON(c3ccccc3)C(c3ccc([N+](=O)[O-])cc3)[C@H]2C(=O)N1c1ccc(Cc2ccc(N3C(=O)[C@@H]4ON(c5ccccc5)C(c5ccc([N+](=O)[O-])cc5)[C@@H]4C3=O)cc2)cc1 (stereo partly drawn)
EC50: > 8.51 µM
IC50: > 8.51 µM

CCc1ccc(Nc2ccc([N+](=O)[O-])cc2[N+](=O)[O-])cc1
outcome: inactive

O=c1[nH]c(-c2ccccc2)nc2cc(Cl)ccc12
outcome: inactive

CSc1nc2nc(C(O)C(O)C(O)CO)cnc2c(=O)[nH]1 (stereo not drawn)
outcome: inactive
